Measured values reported in PMC5329164 (Cancer Science, 2017).
Values after ≈ are worked out from the molar mass of the structure shown.

Legend:
[1] = test system: adriamycin‐resistant UM‐UC‐14 cell line; assay: In vitro cell growth assay, adriamycin-resistant UM-UC-14
UM‐UC‐14 [FGFR3_S249C] = assay: In vitro cell growth assay; type: cell-based; details: Homo sapiens, UMUC14, 120 h, read-out: IC50, anti-proliferative effect
[2] = cited from earlier work; for T 1/2: clinical information; for hyperphosphatemia: clinical
[3] = test system: urothelial cancer harboring FGFR3 gene alternation; details: 25 evaluable urothelial cancer patients with FGFR3 gene alternation; cited from earlier work
RT‐112 [FGFR3‐TACC3] = assay: In vitro cell growth assay; type: cell-based; details: Homo sapiens, RT-112, 120 h, read-out: IC50, proliferation
[4] = test system: tumors harboring FGFR3‐TACC3 fusion genes; details: patients with tumors harboring FGFR3-TACC3 fusion genes; cited from earlier work
[5] = test system: c‐MYC expression in lung cancer cell lines harboring FGFR1 overexpression; details: cited from earlier work

With `COc1cccc2c1C(=O)c1c(O)c3c(c(O)c1C2=O)C[C@@](O)(C(=O)CO)C[C@@H]3O[C@H]1C[C@H](N)[C@H](O)[C@H](C)O1` [Adriamycin] the IC50 ([1]; Homo sapiens, UMUC14, 120 h, read-out: IC50, anti-proliferative effect) was 58 ng/mL (≈ 0.107 µM), the “fold weaker anti-proliferative effect in resistant vs parental cell line” value ([1]; adriamycin-resistant UM-UC-14 vs parental UM-UC-14) was 8.7 folds and the IC50 (UM‐UC‐14 [FGFR3_S249C]) was 6.7 ng/mL (≈ 0.0123 µM).
In the case of `CCN1CCN(c2ccc(Nc3cc(N(C)C(=O)Nc4c(Cl)c(OC)cc(OC)c4Cl)ncn3)cc2)CC1` [BGJ398, 3‐(2,6‐dichloro‐3,5‐dimethoxy‐phenyl)‐1‐{6‐[4‐(4‐ethyl‐piperazin‐1‐yl)‐phenylamino]‐pyrimidin‐4‐yl}‐1‐methyl‐urea], the “T 1/2” value [2] is listed as “quite large”, the hyperphosphatemia [2] is listed as “commonly observed” and the overall response rate [3] is listed as 36%.
`Nc1ccn([C@@H]2O[C@H](CO)[C@@H](O)C2(F)F)c(=O)n1` [Gemcitabine] showed an IC50 (RT‐112 [FGFR3‐TACC3]) of 0.95 ng/mL (≈ 0.00361 µM).
In the case of `COc1cc(OC)cc(N(CCNC(C)C)c2ccc3ncc(-c4cnn(C)c4)nc3c2)c1` [JNJ‐42756493], the “T 1/2” value [2] is given as “quite large”, the hyperphosphatemia [2] is given as “commonly observed” and the partial responses [4] is given as “three out of four partial responses”.
In the case of `CCN(CC)CCCCNc1ncc2cc(-c3cc(OC)cc(OC)c3)c(NC(=O)NC(C)(C)C)nc2n1` [PD173074, 1‐tert‐butyl‐3‐[6‐(3,5‐dimethoxy‐phenyl)‐2‐(4‐diethylamino‐butylamino)‐pyrido[2,3‐d]pyrimidin‐7‐yl]‐urea], the c-MYC expression [5] is given as “decreased”.
